SMILES strings stand for the structures. Several values for one entry are separate records, joined by “and”; a condition that tells them apart may be missing. Equal entries are not always repeated.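 All cell lines were grown in 96-well plates and treated with compound for 48 hours. GI50: concentration for 50% inhibition of growth. TGI marks complete inhibition of growth.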

The results in this text go back to PubChem BioAssay (NCI).

Common to all, as to experiment: inhibition of tumour cell growth, NCI panel, 48 h
The subject of assay [1] is 786-0 renal.
Assay [2] relates to ACHN renal.
Assay [3] concerns K-562 leukemia.
Assay [4] deals with MDA-MB-231 breast.
For assay [5], the system named is NCI-H23 lung.
The test system of assay [6] is SK-MEL-2 melanoma.
Assay [7] has as its system SK-OV-3 ovarian.
The subject of assay [8] is SN12C renal.
Assay [9] deals with UACC-62 melanoma.
In assay [10] the test system is UO-31 renal.

With `Nc1nc(=O)n(C2CC(O)C(CO)O2)cc1F` (configuration not stated), the GI50 in assay [1] is 0.0589 µM; in assay [2], 0.00802 µM and < 0.0108 µM; in [3], > 100 µM; in [4] it was 10.7 µM; in assay [5] it was < 0.0332 µM; in assay [7], > 100 µM. For the same compound, the GI50 was 0.199 µM in assay [8] and < 0.0473 µM in [9]. Further, the TGI in [1] is > 100 µM; in assay [2] it was > 100 µM; in [3], > 100 µM; in assay [4], > 100 µM; in assay [5], > 28.5 µM; in assay [6] it was > 100 µM. Moreover, the TGI in assay [7] was > 100 µM; in [8] it was > 25.8 µM; in [9], > 100 µM; in assay [10] it was > 43.3 µM.
`NC(N)=NN=c1c(=O)c2ccccc2c1=O`: the GI50 in [1] was 19.1 µM; in assay [2], 6.46 µM; in assay [4], 16 µM; in [5], 1.79 µM; in assay [6], 20.7 µM; in [7], 19.6 µM. In addition, the GI50 in assay [8] is 1.81 µM; in [9] it was 12.7 µM; in assay [10], 6.81 µM. The TGI in [1] is 33.3 µM; in [2], 19.2 µM; in [4] it was 33.7 µM; in assay [5], 3.94 µM; in [6], 40.1 µM; in [7], 33.8 µM. The values for the TGI in assay [8], in assay [9] and in assay [10] were 3.83 µM, 25.8 µM and 20.1 µM, respectively.
Regarding `O=C1/C(=C/c2cccnc2)SC(=S)N1Cc1ccco1`, the TGI in assay [1] was > 40.8 µM; in assay [2] it was > 48.9 µM; in assay [3], > 48 µM; in assay [4], > 51.1 µM; in [5] it was > 100 µM; in [6] it was > 27.2 µM. In addition, the TGI in assay [7] is > 75.9 µM; in assay [8], 45 µM; in assay [9], > 82.3 µM; in assay [10] it was 8.02 µM.
Consider `COC(=O)c1cc(-c2ccc3ccccc3c2)[nH]c(=O)c1C#N`, for which the TGI in [1], in assay [2], in assay [4], in assay [5], in assay [6] and in [7] was > 100 µM each time. Moreover, the TGI in assay [8], in [9] and in assay [10] was > 100 µM each time.
`Cc1ccc2c(c1)[n+](=O)c(C(=O)c1cccs1)c(C(F)(F)F)n2[O-]`: the GI50 in assay [1] was 4.85 µM and 1.05 µM; in assay [2], 1.25 µM and 0.541 µM; in [3] it was 1.01 µM and 0.466 µM; in [4] it was 1.01 µM and 1.08 µM; in assay [5], 0.854 µM; in assay [7], 1.56 µM and 2.34 µM. Also, the GI50 was 0.796 µM in [8]; 0.951 µM and 1.91 µM in [9]; 1.35 µM in assay [10]. Also, the TGI was 50 µM and 12.4 µM in assay [1]; 6.47 µM and 4.68 µM in [2]; 50 µM and 19.5 µM in [3]; 2.8 µM and 6.37 µM in assay [4]; 2.59 µM in assay [5]; 50 µM and 18.6 µM in assay [6]. Besides, the TGI is 11.2 µM and 19.4 µM in assay [7]; 1.97 µM in assay [8]; 2.73 µM and 13.9 µM in assay [9]; 50 µM in assay [10].
Consider `C[C@@H](Nc1nc(N[C@H](C)C(F)(F)F)nc(-c2cccc(Cl)n2)n1)C(F)(F)F`, for which the GI50 in assay [1] is 27.4 µM; in [2], 36.4 µM; in assay [3] it was > 100 µM; in [4], 26.8 µM; in assay [5], 54 µM; in [6], 25.6 µM. For the same compound, the GI50 is 37.6 µM in [7], 46.6 µM in [8] and 51.3 µM in assay [10]. The TGI is 91.4 µM in assay [1]; > 100 µM in assay [2]; > 100 µM in [3]; > 100 µM in assay [4]; > 100 µM in assay [5]; > 100 µM in assay [6]. The TGI in [7], in assay [8] and in assay [10] was > 100 µM in each case.
In the case of `CN1CCN(CCCOc2cccc3nc(Nc4cc(Cl)cc(Cl)c4)ccc23)CC1`, the GI50 in assay [1] is 1.49 µM; in assay [2] it was 1.66 µM; in [4], 1.57 µM; in assay [5], 1.72 µM; in assay [6], 1.79 µM; in assay [7], 1.76 µM. In addition, the GI50 is 3.74 µM in assay [8], 1.95 µM in assay [9] and 1.49 µM in assay [10]. In addition, the TGI in assay [1] is 2.94 µM; in assay [2], 3.09 µM; in assay [4], 3.12 µM; in [5] it was 3.32 µM; in assay [6] it was 3.54 µM; in assay [7], 3.3 µM. Further, the TGI was determined as 13.9 µM in assay [8], 3.68 µM in [9] and 2.95 µM in assay [10].
As for `Nc1n[n+]([O-])c2cc([N+](=O)[O-])ccc2[n+]1[O-]`, the TGI in [1] came out at 17.3 µM; in assay [2], 14.4 µM; in [3] it was 11.7 µM; in assay [4], 44.7 µM; in [5], 35.7 µM; in assay [6], 36.3 µM. The TGI was determined as 61.2 µM in assay [7], 18.1 µM in [8], 9.84 µM in [9] and 23.7 µM in assay [10].
With `CC[C@@]1(O)C(=O)OCc2c1cc1n(c2=O)Cc2cc3cc(Cl)ccc3nc2-1`, the GI50 in assay [1] was 0.00519 µM; in [2], 0.00228 µM; in assay [3] it was 0.00916 µM and 0.0873 µM; in [4], 0.094 µM; in assay [5], 0.00226 µM; in assay [6] it was 0.169 µM and 0.187 µM. Also, the GI50 in [7] was 0.0152 µM; in assay [8], 0.00207 µM; in assay [9], 0.00183 µM; in assay [10], 0.00266 µM. In addition, the TGI in [1] is 0.327 µM; in [2], 0.0107 µM; in assay [3], > 100 µM; in assay [4] it was 4.69 µM; in [5], 0.00545 µM and 0.0196 µM; in [6], 0.677 µM and 0.691 µM. Moreover, the TGI in [7] was 39.9 µM; in [8], 0.12 µM and 0.243 µM; in assay [10], 0.0816 µM.
For the compound `CCCCCC/C=C/C#CCCCCCCCC(=O)O`, the TGI in assay [1], in assay [2], in assay [3], in assay [4], in [5] and in assay [6] was > 100 µM each time. The TGI in assay [7] and in assay [8] was > 100 µM each time.
